Experimental data published in patent publication US20070135470A1, “Utilization of vinpocetine to avoid complications in particular those associated to hearing which occur with epilepsy, and treatment thereof” (UNIVERSIDAD NACIONAL AUTONOMA DE MEXICO, priority 2003, published 2007).

Assays:
Format in all cases: in vivo, guinea pig
[1] = test system: hearing loss induced by 4-AP in guinea pigs; experiment: ABR (auditory) threshold in 4-AP-induced epilepsy; conditions: vinpocetine 2 mg/kg or vehicle 1 h before 4-AP
Procedure: (§1) Experiments were performed in pigmented adult male guinea pigs initially weighing 349±38 g. ABRs recordings were used to evaluate the hearing status of each animal and EEG recordings to evaluate changes in cortical excitability. The ABR and EEG recordings were obtained following a method that we have previously reported (Nekrassov and Sitges, 2003). The Institutional Animal Use and Care Committee approved all experimental procedures.
(§2) Three types of recordings were performed in the anaesthetized animals, namely the ABR recordings elicited by a stimulus of high intensity (100 dB), the ABR recordings for determination of the auditory threshold and the EEG recordings.
(§3) Determination of ABR thresholds. ABR recordings elicited by stimuli of progressively lower intensity (in dB) were used for determining the hearing threshold. Threshold is defined as the lowest stimulus intensity (in dB) at which the P3 wave of the ABR could still be recorded in three consecutive trials.
(§4) Student's t-test was used for the evaluation of the differences between results obtained before and at the specified times after the injection of the convulsing agents. The criterion for statistical significance for all measures was P≦0.05. All data are expressed as means±standard error of the mean. In figures and tables the symbol * is used for indicating statistic significant differences.
(§5) Five guinea pigs were entered into the study. One hour after injecting guinea pigs with vehicle (acidified saline used to dissolve vinpocetine) the animals were anaesthetized and a first set of ABR and EEG recordings was taken before the injection (i.p) of the convulsing agent, 4-AP. The animals were injected with 4-AP (2 mg/kg) and about 20 min after injecting 4-AP (ictal period) the EEG recording was taken. Then the other series of ABR and EEG recordings were taken at specific times within the post-ictal period. After two weeks the same series of recordings were repeated but instead vehicle the animals were injected with vinpocetine (2 mg/kg) 1 hour before the injection of 4-AP.

[2] = test system: epileptic cortical activity induced by 4-AP in guinea pigs; experiment: EEG recordings of cortical activity in 4-AP-induced epilepsy; conditions: 4-AP 2 mg/kg i.p.
Procedure: as §1, §2, §5
Vinpocetine inhibits all the changes induced by 4-AP on the EEG. […] This change on the cortical activity elicited by 4-AP for the ictal period is followed by the post-ictal period characterized by isolated spikes of higher amplitude that appear on the EEG about one hour after the injection of 4-AP. […] The top traces of FIG. 6 show the characteristic EEG recordings taken before the injection of 4-AP in the animals pre-injected with vehicle (a) and in the animals pre-injected with vinpocetine (b). The changes induced by 4-AP on for the ictal period are shown in the second trace on FIG. 6a. In the vinpocetine treated animals 4-AP was unable to induce the ictal activity (second trace on FIG. 6b).

[3] = test system: epilepsy induced by 4-AP in guinea pigs; experiment: ABR wave parameters (amplitude, latency) in 4-AP-induced epilepsy; conditions: 100 dB, vinpocetine 2 mg/kg or vehicle 1 h before 4-AP
Procedure: as §1, §2
(§6) Determination of ABR wave parameters. The latency and amplitude of each wave component of the ABR elicited by a stimulus of 100 dB with pure tone frequencies of 4 and 8 kHz was measured in all the ABR recordings obtained under the different experimental conditions at the specified times. The latency of each ABR wave (in ms) refers to the time interval between the onset of the auditory stimulus and the positive peak of the wave. The onset of the stimulus is indicated by the vertical arrow at the bottom of the recordings on FIG. 1. The peak amplitude (in μV) of each wave of the ABR is the difference between the positive peak of the wave and the reference baseline (trace between the stimulus and the appearance of the first ABR wave on FIG. 1).
as §4, §5

[4] = test system: epileptic cortical activity induced by PTZ in guinea pigs; experiment: EEG recordings of cortical activity in PTZ-induced epilepsy; conditions: PTZ 100 mg/kg i.p.
Procedure: as §1, §2
(§7) Eight male guinea pigs were entered into this study. PTZ was dissolved in saline and vinpocetine in a saline acidified (with HCl) adjusted to pH 4 (with NaOH). Four hours after injecting guinea pigs with vehicle (acidified saline used to dissolve vinpocetine) the animals were anaesthetized and a first set of ABR and EEG recordings was taken before the injection (i.p) of the convulsing agent, PTZ. The animals were injected with PTZ (100 mg/kg) and about 2 min after injecting PTZ (ictal period) the EEG recording was taken. Then the other series of ABR and EEG recordings were taken at specific times within the post-ictal period. After two weeks the same series of recordings was taken but instead vehicle the animals were injected with vinpocetine (2 mg/kg) 4 hours before the injection of PTZ.
Vinpocetine inhibits all the changes induced by PTZ on the EEG. […] This dramatic change on the cortical activity induced by PTZ in the anaesthetized animals during convulsions is followed by a typical pattern of cortical activity characterized by rhythmic spike bursts of high amplitude. The duration time of this typical pattern of cortical activity, that is not accompanied by convulsions is referred as the post-ictal period.

[5] = test system: hearing loss induced by PTZ in guinea pigs; experiment: ABR (auditory) threshold in PTZ-induced epilepsy; conditions: vinpocetine 2 mg/kg or vehicle 4 h before PTZ
Procedure: as §1, §2, §3, §4, §7

[6] = test system: epilepsy induced by PTZ in guinea pigs; experiment: ABR wave parameters (amplitude, latency) in PTZ-induced epilepsy; conditions: 100 dB, vinpocetine 2 mg/kg or vehicle 4 h before PTZ
Procedure: as §1, §2, §6, §4, §7

[7] = 4 kHz, 30 min after 4-AP 2 mg/kg i.p.
[8] = 4 kHz, 60 min after 4-AP 2 mg/kg i.p.
[9] = 8 kHz, 30 min after 4-AP 2 mg/kg i.p.
[10] = 8 kHz, 60 min after 4-AP 2 mg/kg i.p.
[11] = animals pre-injected with vehicle
[12] = 4 kHz, 30 min after PTZ 100 mg/kg i.p.
[13] = 4 kHz, 50 min after PTZ 100 mg/kg i.p.
[14] = 8 kHz, 30 min after PTZ 100 mg/kg i.p.
[15] = 8 kHz, 50 min after PTZ 100 mg/kg i.p.

Structure (SMILES): Nc1ccncc1 [4-AP, 4-aminopyridine]
- auditory threshold [1, 7]: 20 ± 2.0 * dB
- auditory threshold [1, 8]: 30 ± 3.5 * dB
- auditory threshold [1, 9]: 10.0 ± 2.0 * dB
- auditory threshold [1, 10]: 23.8 ± 6.3 * dB
- time of appearance of seizure (spike-sharp wave) activity in the EEG after injection [2]: about 20 min
- seizure induction in anaesthetized animals [2, 11]: developed generalized seizures
- latency of the P4 wave of the ABR [3, 7]: 3.78 ± 0.09 * ms
- latency of the P4 wave of the ABR [3, 8]: 3.78 ± 0.09 * ms
- latency of the P4 wave of the ABR ([3]; 4 kHz, 80 min after 4-AP 2 mg/kg i.p.): 3.78 ± 0.09 * ms
- latency of the P4 wave of the ABR ([3]; 4 kHz, 100 min after 4-AP 2 mg/kg i.p.): 3.75 ± 0.10 * ms
- latency of the P4 wave of the ABR [3, 9]: 3.51 ± 0.13 ms
- latency of the P4 wave of the ABR [3, 10]: 3.80 ± 0.10 * ms
- latency of the P4 wave of the ABR ([3]; 8 kHz, 80 min after 4-AP 2 mg/kg i.p.): 3.80 ± 0.10 * ms
- latency of the P4 wave of the ABR ([3]; 8 kHz, 100 min after 4-AP 2 mg/kg i.p.): 3.83 ± 0.12 * ms

Structure (SMILES): C1CCc2nnnn2CC1 [PTZ, pentylenetetrazole]
- onset of seizure activity in the EEG after injection [4]: within the two first min
- seizure induction in anaesthetized animals [4, 11]: developed generalized seizures
- auditory threshold [5, 12]: 28 ± 2.0 * dB
- auditory threshold [5, 13]: 29 ± 1.0 * dB
- auditory threshold [5, 14]: 17 ± 2.0 * dB
- auditory threshold [5, 15]: 21 ± 2.4 * dB
- P4 wave peak amplitude of the ABR ([6]; 4 kHz, 10 min after PTZ 100 mg/kg i.p.): 1.70 ± 0.5 * μV
- P4 wave peak amplitude of the ABR ([6]; 4 kHz, 20 min after PTZ 100 mg/kg i.p.): 2.12 ± 0.4 * μV
- P4 wave peak amplitude of the ABR [6, 12]: 1.84 ± 0.4 * μV
- P4 wave peak amplitude of the ABR [6, 13]: 2.11 ± 0.3 * μV
- P4 wave peak amplitude of the ABR ([6]; 8 kHz, 10 min after PTZ 100 mg/kg i.p.): 2.07 ± 0.4 * μV
- P4 wave peak amplitude of the ABR ([6]; 8 kHz, 20 min after PTZ 100 mg/kg i.p.): 1.99 ± 0.3 * μV
- P4 wave peak amplitude of the ABR [6, 14]: 1.92 ± 0.3 * μV
- P4 wave peak amplitude of the ABR [6, 15]: 1.51 ± 0.5 * μV
